Experimental data: ChEMBL document CHEMBL4118241, “Structural basis for the selective inhibition of activated thrombin-activatable fibrinolysis inhibitor (TAFIa) by a selenium-containing inhibitor with chloro-aminopyridine as a basic group” (Bioorg Med Chem Lett, 2018)
pIC50: −log10 of the molar value.

Columns and labels:
[1] = molecular target: T1, Carboxypeptidase B2 (Homo sapiens, UniProt Q96IY4); assay: Inhibition of human plasma activated thrombin-activatable fibrinolysis inhibitor after 10 mins in presence of DTT
T1 sequence (Q96IY4 whole entry): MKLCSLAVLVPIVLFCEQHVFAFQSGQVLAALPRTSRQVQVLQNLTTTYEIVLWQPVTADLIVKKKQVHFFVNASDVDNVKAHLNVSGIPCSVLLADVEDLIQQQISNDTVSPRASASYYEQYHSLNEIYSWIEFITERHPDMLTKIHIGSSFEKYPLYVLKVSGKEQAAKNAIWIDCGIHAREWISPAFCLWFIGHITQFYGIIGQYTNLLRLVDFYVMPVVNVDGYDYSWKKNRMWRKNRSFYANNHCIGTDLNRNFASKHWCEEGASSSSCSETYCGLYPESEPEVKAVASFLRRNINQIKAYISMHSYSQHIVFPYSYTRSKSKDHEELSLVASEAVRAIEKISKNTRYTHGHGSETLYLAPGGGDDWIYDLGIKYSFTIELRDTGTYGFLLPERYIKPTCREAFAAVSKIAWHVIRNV

[2] = molecular target: T2, Carboxypeptidase B (Sus scrofa, UniProt P09955); assay: Inhibition of porcine pancreas carboxypeptidase B after 10 mins in presence of DTT
T2 sequence (P09955 whole entry): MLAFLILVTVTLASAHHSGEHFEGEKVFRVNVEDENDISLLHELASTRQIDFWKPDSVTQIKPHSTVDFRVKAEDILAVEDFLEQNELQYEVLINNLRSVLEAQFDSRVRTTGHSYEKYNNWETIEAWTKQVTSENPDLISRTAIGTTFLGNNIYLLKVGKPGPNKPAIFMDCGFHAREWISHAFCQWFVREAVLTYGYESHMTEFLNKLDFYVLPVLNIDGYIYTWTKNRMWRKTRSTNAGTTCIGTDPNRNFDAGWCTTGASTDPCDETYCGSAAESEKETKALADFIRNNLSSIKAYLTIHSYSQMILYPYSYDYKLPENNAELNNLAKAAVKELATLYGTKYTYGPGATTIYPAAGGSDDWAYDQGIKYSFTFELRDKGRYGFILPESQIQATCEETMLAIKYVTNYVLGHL

[3] = molecular target: T3, Carboxypeptidase N catalytic chain (Homo sapiens, UniProt P15169); assay: Inhibition of human carboxypeptidase N preincubated for 10 mins followed by hippuryl-lysine substrate addition measured after 30 mins in presence of DTT
T3 sequence (P15169 whole entry): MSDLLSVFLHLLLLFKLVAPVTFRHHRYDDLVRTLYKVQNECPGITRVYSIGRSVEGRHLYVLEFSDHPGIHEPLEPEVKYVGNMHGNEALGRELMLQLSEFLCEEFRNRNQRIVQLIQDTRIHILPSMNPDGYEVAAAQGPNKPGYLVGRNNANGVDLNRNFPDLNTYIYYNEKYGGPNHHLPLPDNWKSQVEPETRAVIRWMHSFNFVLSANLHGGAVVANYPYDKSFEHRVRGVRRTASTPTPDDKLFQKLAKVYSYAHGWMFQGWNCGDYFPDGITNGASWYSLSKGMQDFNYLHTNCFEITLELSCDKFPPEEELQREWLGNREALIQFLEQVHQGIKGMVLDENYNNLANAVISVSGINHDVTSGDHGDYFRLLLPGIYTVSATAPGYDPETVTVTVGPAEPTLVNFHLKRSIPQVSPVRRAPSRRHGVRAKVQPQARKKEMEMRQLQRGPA

[4] = species: Homo sapiens; assay: Selectivity ratio of IC50 for human carboxypeptidase N to IC50 for human plasma activated thrombin-activatable fibrinolysis inhibitor
[5] = molecular target: T1, Carboxypeptidase B2; assay: Inhibition of human plasma activated thrombin-activatable fibrinolysis inhibitor after 10 mins in absence of DTT
[6] = molecular target: T3, Carboxypeptidase N catalytic chain; assay: Inhibition of human carboxypeptidase N preincubated for 10 mins followed by hippuryl-lysine substrate addition measured after 30 mins in absence of DTT
[7] = molecular target: T2, Carboxypeptidase B; assay: Inhibition of porcine pancreas carboxypeptidase B after 10 mins in absence of DTT

Q: With `CCC(=O)[Se]CC(Cc1cnc(N)c(Cl)c1)C(=O)O` (racemic) as the compound, how does the pIC50 [1] read?
A: The pIC50 was 8.82.

Q: And the pIC50 [2]?
A: The pIC50 was 7.54.

Q: And the pIC50 [3]?
A: The pIC50 was < 3.42.

Q: What about the Ratio IC50 [4] of the same compound?
A: Its Ratio IC50 is > 250000.

Q: What about the pIC50 [5] of the same compound?
A: The pIC50 was 3.43.

Q: What about the pIC50 [6] of the same compound?
A: The pIC50 was < 3.42.

Q: What about the pIC50 [7] of the same compound?
A: Its pIC50 is 5.60.
